Assay results from PubChem BioAssay AID1963860 (Molecular Pharmacology Branch, DTP, NCI, 2024).
pIC50: −log10 of the molar value.

System: CN0375-F725-PDC KRAS spheroid viability
Assay: Anticancer human tumor CN0375-F725-PDC patient-derived colon carcinoma cell line growth inhibition [KRAS2]
Details: spheroids with HUVEC and MSC; for viability, T/C: stronger effect = lower value
Source text: Multicellular complex tumor spheroid response to RAS pathway inhibitors in combination with a targeted agents in patient-derived cell lines with oncogenic KRAS variants from multiple cancer types
A high-throughput screen of multi-cell type tumor spheroids was designed to identify active combinations of targeted small molecules and KRAS pathway inhibitors. Complex spheroids include a stromal component modeled by human endothelial cells (HUVEC) and fibroblasts modeled by human mesenchymal stem cells (MSCs). The concentration ranges selected for each drug and investigational agent were based upon clinically achievable concentrations if the clinical Cmax of the agent was known.
Compounds. The drugs and investigational agents: BI-3406 (NSC825286), BAY-293 (NSC824723), batoprotafib (TNO155; NSC825523), sotorasib (AMG 510; NSC818433), MRTX1257 (NSC819558), elimusertib (BAY 1895344; NSC800525), molibresib (GSK525762; NSC774829), temuterkib (LY3214996; NSC803410), venetoclax (NSC766270), alisertib (NSC759677), olaparib (NSC753686), talazoparib (NSC767125), erdafitinib (NSC781556), ipatasertib (NSC767898), cabozantinib (NSC761068), nintedanib (NSC756659), abemaciclib (NSC768073), docetaxel (NSC628503), trametinib (NSC758246), and sapanisertib (NSC764658) were obtained from the National Cancer Institute (NCI) Developmental Therapeutics Program Chemical Repository. The FDA-approved anticancer drug set is available from the Developmental Therapeutics Program. […] The stock solutions were prepared in dimethyl sulfoxide (DMSO, Sigma-Aldrich, St. Louis, MO, cat. D2650) at 800-fold the tested concentration and stored at -70 degrees C prior to their use. All drugs and investigational agents were tested over a range starting from a high concentration at or near the clinical Cmax and decreasing in half-log increments. If the clinical Cmax for an agent had not been determined, the highest concentration tested was 10 microM.
Cell Culture. All cells were maintained in an incubator at 37 degrees C and 5% CO2 with 95% humidity. The PDC lines were cultured according to standard operating procedures established by the NCI PDMR (https://pdmr.cancer.gov/sops/default.htm). Briefly, all PDCs were thawed and cultured in Matrigel-coated flasks prepared with a working solution of 1X Ham's F-12 nutrient mix, without supplementation (Invitrogen, Waltham, MA, cat. 11765054), 100 U/mL penicillin-streptomycin (Invitrogen, cat. 15140122), and 2.5% Matrigel (Corning Inc., Corning, NY, cat. 354248) for the first three passages. All PDCs were cultured in complete DMEM/F-12 media containing advanced DMEM/F-12 (Invitrogen, cat. 12634028), 4.9% defined fetal bovine serum, heat inactivated (HyClone Laboratories Inc., Logan, UT, cat. SH30070.03HI), 389 ng/mL hydrocortisone (Sigma-Aldrich, cat. H4001), 9.7 ng/mL human EGF recombinant protein (Invitrogen, cat. PHG0313), 23.4 microg/mL adenine (Sigma-Aldrich, cat. A2786), 97.3 U/mL penicillin-streptomycin (Invitrogen, cat. 15140122), 1.9 mM L-glutamine (Invitrogen, cat. 25030081), and 9.7 microM Y-27632 dihydrochloride (Tocris Bioscience, Bristol, United Kingdom, cat. 1254). The PDCs were cultured in complete DMEM/F12 media without 9.7 microM Y-27632 dihydrochloride for at least two passages prior to the screen. The established cell line HOP-62 was cultured in RPMI 1640 medium, HEPES (Invitrogen, cat. 22400105) with 10% defined fetal bovine serum (HyClone Laboratories Inc., cat. SH30070.03) and 2 mM L-glutamine (Invitrogen, cat. 25030081). The pooled donor HUVEC were cultured in endothelial cell growth medium 2 (PromoCell, Heidelberg, Germany, cat. C-22011) and the hMSC were cultured in mesenchymal stem cell growth medium 2 (PromoCell, cat. C-28009). For all experiments, HUVEC and hMSC were used at passages </=5, while the malignant cell lines were used at passages </=15. […]

[1] = compound alone, run of 08/26/2021
[2] = compound alone, run of 09/02/2021
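Also: spheroids exposed to agents for 7 days.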

With C=CC(=O)N1CCN(c2nc(=O)n(-c3c(C)ccnc3C(C)C)c3nc(-c4c(O)cccc4F)c(F)cc23)C(C)C1 (configuration not stated) the viability, T/C (compound 0.1 µM) was 103% [middle of 17 runs], the viability, T/C (compound 0.316 µM) was 103% [middle of 17 runs] and the viability, T/C (compound 1 µM) was 103% [middle of 17 runs]. For the same compound, the viability, T/C (compound 3.16 µM) was 104% [middle of 17 runs], the viability, T/C (compound 10 µM) was 100% [middle of 17 runs] and the pIC50 (compound alone, run of 08/19/2021) was under 5.00. The pIC50 [1] was under 5.00 and the pIC50 [2] was under 5.00.

In the case of CNCc1ccccc1-c1csc(C(C)Nc2nc(C)nc3cc(OC)c(OC)cc23)c1 (configuration not stated), the viability, T/C (compound 0.1 µM) was 98.1% [middle of 17 runs], the viability, T/C (compound 0.316 µM) was 92.8% [middle of 17 runs] and the viability, T/C (compound 10 µM) was 0.33% [middle of 15 runs]. The IC50 [1] was 988 nM [middle of 5 runs] and the IC50 [2] was 1.33 µM [middle of 6 runs].

COC(=O)c1ccc2c(C(=Nc3ccc(N(C)C(=O)CN4CCN(C)CC4)cc3)c3ccccc3)c(O)[nH]c2c1 was tested, and the viability, T/C (compound 0.0316 µM) was 103% [middle of 5 runs], the viability, T/C (compound 0.1 µM) was 96.6% [middle of 5 runs] and the viability, T/C (compound 0.316 µM) was 93.9% [middle of 5 runs]. For the same compound, the viability, T/C (compound 1 µM) was 91.9% [middle of 5 runs], the viability, T/C (compound 10 µM) was 0.42% [middle of 5 runs] and the IC50 (curve of compound) was 3.14 µM [middle of 5 runs].

In the case of COc1cc2nc(C)nc(NC(C)c3cc(N)cc(C(F)(F)F)c3)c2cc1OC1CCOC1 (configuration not stated), the viability, T/C (compound 0.1 µM) was 96.2% [middle of 17 runs], the viability, T/C (compound 0.316 µM) was 92.3% [middle of 17 runs] and the viability, T/C (compound 1 µM) was 90.5% [middle of 17 runs]. For the same compound, the viability, T/C (compound 3.16 µM) was 83.4% [middle of 17 runs], the IC50 [1] was 5.77 µM [middle of 4 runs] and the IC50 [2] was 5.43 µM [middle of 6 runs].

In the case of COc1cc2nccc(Oc3ccc(NC(=O)C4(C(=O)Nc5ccc(F)cc5)CC4)cc3)c2cc1OC, the viability, T/C (compound 0.0316 µM) was 102% [middle of 5 runs], the viability, T/C (compound 0.1 µM) was 97.5% [middle of 5 runs] and the viability, T/C (compound 0.316 µM) was 92.5% [middle of 5 runs]. For the same compound, the viability, T/C (compound 1 µM) was 88.5% [middle of 5 runs], the viability, T/C (compound 3.16 µM) was 57.1% [middle of 5 runs] and the viability, T/C (compound 10 µM) was 67.7% [middle of 5 runs]. The pIC50 (curve of compound) was under 5.00.

CC(=O)OC12COC1CC(O)C1(C)C(=O)C(O)C3=C(C)C(OC(=O)C(O)C(NC(=O)OC(C)(C)C)c4ccccc4)CC(O)(C(OC(=O)c4ccccc4)C21)C3(C)C (configuration not stated) + C=CC(=O)N1CCN(c2nc(=O)n(-c3c(C)ccnc3C(C)C)c3nc(-c4c(O)cccc4F)c(F)cc23)C(C)C1 showed a pIC50 (curve of first compound, second compound 0.1 µM) of under 5.50, a pIC50 (curve of first compound, second compound 0.316 µM) of under 5.50 and a pIC50 (curve of first compound, second compound 1 µM) of under 5.50. For the same compound, the pIC50 (curve of first compound, second compound 3.16 µM) was under 5.50, the pIC50 (curve of first compound, second compound 10 µM) was under 5.50 and the viability, T/C (second compound 0.1 µM, first compound 0.01 µM) was 100%. For the same compound, the viability, T/C (second compound 0.1 µM, first compound 0.0316 µM) was 97.4%, the viability, T/C (second compound 0.1 µM, first compound 0.1 µM) was 88.5% and the viability, T/C (second compound 0.1 µM, first compound 0.316 µM) was 86.6%. It also gave a viability, T/C (second compound 0.1 µM, first compound 1 µM) of 86.5%, a viability, T/C (second compound 0.1 µM, first compound 3.16 µM) of 76.8% and a viability, T/C (second compound 0.316 µM, first compound 0.01 µM) of 99.8%. The viability, T/C (second compound 0.316 µM, first compound 0.0316 µM) was 97.8%, the viability, T/C (second compound 0.316 µM, first compound 0.1 µM) was 94.4% and the viability, T/C (second compound 0.316 µM, first compound 0.316 µM) was 93.1%. The viability, T/C (second compound 0.316 µM, first compound 1 µM) was 85.7%, the viability, T/C (second compound 0.316 µM, first compound 3.16 µM) was 81.7% and the viability, T/C (second compound 1 µM, first compound 0.01 µM) was 96.6%. The viability, T/C (second compound 1 µM, first compound 0.0316 µM) was 98.2%, the viability, T/C (second compound 1 µM, first compound 0.1 µM) was 91.8% and the viability, T/C (second compound 1 µM, first compound 0.316 µM) was 87.1%. For the same compound, the viability, T/C (second compound 1 µM, first compound 1 µM) was 88%, the viability, T/C (second compound 1 µM, first compound 3.16 µM) was 80% and the viability, T/C (second compound 3.16 µM, first compound 0.01 µM) was 97.8%. It also gave a viability, T/C (second compound 3.16 µM, first compound 0.0316 µM) of 93.8%, a viability, T/C (second compound 3.16 µM, first compound 0.1 µM) of 90.5% and a viability, T/C (second compound 3.16 µM, first compound 0.316 µM) of 88.2%. For the same compound, the viability, T/C (second compound 3.16 µM, first compound 1 µM) was 86.1%, the viability, T/C (second compound 3.16 µM, first compound 3.16 µM) was 89.5% and the viability, T/C (second compound 10 µM, first compound 0.01 µM) was 93.8%. The viability, T/C (second compound 10 µM, first compound 0.0316 µM) was 92.5%, the viability, T/C (second compound 10 µM, first compound 0.1 µM) was 88.1% and the viability, T/C (second compound 10 µM, first compound 0.316 µM) was 84.9%. For the same compound, the viability, T/C (second compound 10 µM, first compound 1 µM) was 74.8% and the viability, T/C (second compound 10 µM, first compound 3.16 µM) was 79.9%.
